Laboratory results taken from patent US8143293B2, “Kinase inhibitors useful for the treatment of myleoprolific diseases and other proliferative diseases” (Deciphera Pharmaceuticals, LLC, priority 2007, dated 2012).

Assays:
[1] = molecular target: T1, BaF3 cells transfected with T315I p210 BCR-Abl (Homo sapiens, UniProt P00519, T315I, cells depend on it); assay: Ba/F3 p210 T315I whole cell proliferation assay; format: cell-based; details: 72 hours, Cell Titer Blue; read-out: Whole Cell Antiproliferation IC50, Ba/F3 p210 T315I whole cell proliferation assay
T1 construct: fused on or other part: P11274 (Breakpoint cluster region protein)

[2] = molecular target: T2, c-Kit kinase (SEQ ID NO:9) (Homo sapiens, UniProt P10721); assay: C-Kit kinase (SEQ ID NO:9) assay, pyruvate kinase/lactate dehydrogenase coupled; details: <2 min preincubation, ATP 200 μM; read-out: Biochemical IC50, c-Kit Enzyme Assay
T2 construct: contained c-Kit (cKIT residues T544-V976, from ProQinase, 5.4 nM); purchased ProQinase
T2 sequence (P10721 with tags, fused parts or gaps): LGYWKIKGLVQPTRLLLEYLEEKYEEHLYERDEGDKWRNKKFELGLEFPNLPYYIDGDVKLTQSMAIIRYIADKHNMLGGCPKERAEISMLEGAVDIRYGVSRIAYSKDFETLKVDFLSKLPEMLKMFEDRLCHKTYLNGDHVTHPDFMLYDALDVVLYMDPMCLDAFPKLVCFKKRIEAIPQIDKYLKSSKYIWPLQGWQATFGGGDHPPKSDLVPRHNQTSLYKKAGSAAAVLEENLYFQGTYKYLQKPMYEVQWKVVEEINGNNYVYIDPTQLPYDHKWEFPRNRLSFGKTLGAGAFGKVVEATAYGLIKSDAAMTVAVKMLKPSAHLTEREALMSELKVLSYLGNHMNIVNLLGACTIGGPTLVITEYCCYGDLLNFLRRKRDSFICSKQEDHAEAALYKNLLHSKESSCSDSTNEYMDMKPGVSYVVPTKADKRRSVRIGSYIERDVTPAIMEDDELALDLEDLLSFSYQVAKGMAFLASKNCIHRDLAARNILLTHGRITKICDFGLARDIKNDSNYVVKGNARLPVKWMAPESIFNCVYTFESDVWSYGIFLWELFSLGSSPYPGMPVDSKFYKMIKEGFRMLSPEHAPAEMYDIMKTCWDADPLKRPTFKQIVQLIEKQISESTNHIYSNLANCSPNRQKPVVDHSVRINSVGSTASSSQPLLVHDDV
Experimental: C-Kit Kinase (SEQ ID NO:9) Assay
Activity of c-Kit kinase (SEQ ID NO:9) was determined by following the production of ADP from the kinase reaction through coupling with the pyruvate kinase/lactate dehydrogenase system (e.g., Schindler, et al. Science (2000) 289, 1938-1942). In this assay, the oxidation of NADH (thus the decrease at A340 nm) was continuously monitored spectrophometrically. The reaction mixture (100 μl) contained c-Kit (cKIT residues T544-V976, from ProQinase, 5.4 nM), polyE4Y (1 mg/ml), MgCl2 (10 mM), pyruvate kinase (4 units), lactate dehydrogenase (0.7 units), phosphoenol pyruvate (1 mM), and NADH (0.28 mM) in 90 mM Tris buffer containing 0.2% octyl-glucoside and 1% DMSO, pH 7.5. Test compounds were incubated with […] (SEQ ID NO:9) and other reaction reagents at 22° C. for <2 min before ATP (200 μM) was added to start the reaction. The absorption at 340 nm was monitored continuously for 0.5 hours at 30° C. on Polarstar Optima plate reader (BMG). The reaction rate was calculated using the 0 to 0.5 h time frame. Percent inhibition was obtained by comparison of reaction rate with that of a control (i.e. with no test compound). IC50 values were calculated from a series of percent inhibition values determined at a range of inhibitor concentrations using software routines as implemented in the GraphPad Prism software package.

[3] = molecular target: T3, T315I Abl kinase (SEQ ID NO:2) (Homo sapiens, UniProt P00519, T315I); assay: T315I Abl kinase (SEQ ID NO:2) assay, pyruvate kinase/lactate dehydrogenase coupled; details: 1 h preincubation, ATP 500 μM; read-out: Biochemical IC50, Abl T315I Enzyme Assay
T3 construct: purchased deCode Genetics
T3 sequence (P00519 with tags, fused parts or gaps T315I): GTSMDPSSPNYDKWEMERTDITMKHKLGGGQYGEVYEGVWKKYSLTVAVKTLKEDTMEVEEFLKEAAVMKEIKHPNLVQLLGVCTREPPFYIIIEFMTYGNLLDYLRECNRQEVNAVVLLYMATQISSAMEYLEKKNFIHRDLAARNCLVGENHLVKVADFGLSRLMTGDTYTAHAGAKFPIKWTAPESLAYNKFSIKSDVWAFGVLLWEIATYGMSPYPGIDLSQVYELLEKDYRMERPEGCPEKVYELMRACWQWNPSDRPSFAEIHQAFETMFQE

Cn1cc(-c2cc(Oc3ccc(NC(=O)Nc4cnn(C5CCCC5)c4)c(F)c3)ccn2)cn1 [Example 15, 1-(1-cyclopentyl-1H-pyrazol-4-yl)-3-(2-fluoro-4-(2-(1-methyl-1H-pyrazol-4-yl)pyridin-4-yloxy)phenyl)urea]
< 100 nM: GI50 [1] | IC50 [2] | IC50 [3]

Cn1cc(-c2cc(Oc3ccc(NC(=O)Nc4cc(C(C)(C)C)no4)c(F)c3)ccn2)cn1 [Example 1, 1-(3-t-butylisoxazol-5-yl)-3-(2-fluoro-4-(2-(1-methyl-1H-pyrazol-4-yl)pyridin-4-yloxy)phenyl)urea]
< 100 nM: GI50 [1] | IC50 [2] | IC50 [3]

CC(C)c1cncc(NC(=O)Nc2ccc(Oc3ccnc(-c4cnn(C)c4)c3)cc2F)c1 [Example 22, 1-(2-fluoro-4-(2-(1-methyl-1H-pyrazol-4-yl)pyridin-4-yloxy)phenyl)-3-(5-isopropylpyridin-3-yl)urea]
< 100 nM: GI50 [1] | IC50 [2] | IC50 [3]

Cn1cc(-c2cc(Oc3ccc(NC(=O)Nc4cc(C(F)(F)F)c[nH]c4=O)c(F)c3)ccn2)cn1 [Example 27, 1-(2-fluoro-4-(2-(1-methyl-1H-pyrazol-4-yl)pyridin-4-yloxy)phenyl)-3-(2-oxo-5-(trifluoromethyl)-1,2-dihydropyridin-3-yl)urea]
< 100 nM: GI50 [1] | IC50 [2] | IC50 [3]

Cn1cc(-c2cc(Oc3ccc(NC(=O)Nc4cnn(C(C)(C)C)c4)c(F)c3)ccn2)cn1 [Example 5, 1-(1-t-butyl-1H-pyrazol-4-yl)-3-(2-fluoro-4-(2-(1-methyl-1H-pyrazol-4-yl)pyridin-4-yloxy)phenyl)urea]
< 100 nM: GI50 [1] | IC50 [2] | IC50 [3]

Cn1cc(-c2cc(Oc3ccc(NC(=O)Nc4nnc(C(C)(C)C)s4)c(F)c3)ccn2)cn1 [Example 11, 1-(5-tert-butyl-1,3,4-thiadiazol-2-yl)-3-(2-fluoro-4-(2-(1-methyl-1H-pyrazol-4-yl)pyridin-4-yloxy)phenyl)urea]
< 100 nM: GI50 [1] | IC50 [2] | IC50 [3]

Cn1cc(-c2cc(Oc3ccc(NC(=O)Nc4cc(C(C)(C)C)no4)c(F)c3F)ccn2)cn1 [Example 25, 1-(3-tert-butylisoxazol-5-yl)-3-(2,3-difluoro-4-(2-(1-methyl-1H-pyrazol-4-yl)pyridin-4-yloxy)phenyl)urea]
< 100 nM: GI50 [1] | IC50 [2] | IC50 [3]

Cn1cc(-c2cc(Oc3ccc(NC(=O)Nc4cnn(C(C)(C)C)c4)c(F)c3F)ccn2)cn1 [Example 8, 1-(1-tert-butyl-1H-pyrazol-4-yl)-3-(2,3-difluoro-4-(2-(1-methyl-1H-pyrazol-4-yl)pyridin-4-yloxy)phenyl)urea]
< 100 nM: GI50 [1] | IC50 [2] | IC50 [3]

1-(2-fluoro-4-(2-(1-methyl-1H-pyrazol-4-yl)pyridin-4-yloxy)phenyl)-3-(3-(1-methylcyclopentyl)isoxazol-5-yl)urea [Example 14]
< 100 nM: GI50 [1] | IC50 [2] | IC50 [3]
